Among the data in PubChem BioAssay AID274 (DTP/NCI, 2004) are T/C values, retold here.

The test system of the test is BDF1 mice, Lewis lung carcinoma iv, survival T/C. Description: NCI In Vivo Anticancer Drug Screen. Data for tumor model Lewis Lung Carcinoma (intravenous) in B6D2F1 (BDF1) mice. The note with it: endpoint: median survival time, higher = longer survival. The method, then:
The antitumor activity of compounds was measured in mice bearing transplantable tumors. Survival or tumor size were measured and the results are expressed as the measurement made in the treated group (T) divided by the measurement made in the vehicle treated control group (C). The tumor model used in this assay is Lewis Lung Carcinoma (intravenous) in B6D2F1 (BDF1) mice

Setting [1] is: dose: 100.0 mg/kg/injection, schedule: Q01DX009 (ip), vehicle: Klucel (hydroxypropylcellulose) (HPC).
The mark [2] stands for this setting: dose: 12.5 mg/kg/injection, schedule: Q01DX009 (ip), vehicle: saline.
[3] abbreviates: dose: 25.0 mg/kg/injection, schedule: Q01DX009 (ip), vehicle: saline.
Setting [4] is: dose: 50.0 mg/kg/injection, schedule: Q01DX009 (ip), vehicle: saline.
Setting [5] is: dose: 25.0 mg/kg/injection, schedule: Q01DX009 (ip), vehicle: water.
Setting [6] is: dose: 50.0 mg/kg/injection, schedule: Q01DX009 (ip), vehicle: water.
Where [7] appears, read: dose: 100.0 mg/kg/injection, schedule: Q01DX009 (ip), vehicle: saline.

Values joined by “and” are separate entries in the source; they are usually repeats but may differ in a detail not shown here. Equal values may be shown once. Inconclusive results and toxic doses are left out.

On to `O=c1[nH]c(=O)n([C@H]2CCCO2)cc1F`, for which the T/C by setting is: (dose: 25.0 mg/kg/injection, schedule: Q01DX009 (ip), vehicle: Klucel (hydroxypropylcellulose) (HPC)) 106 % of control; (dose: 50.0 mg/kg/injection, schedule: Q01DX009 (ip), vehicle: Klucel (hydroxypropylcellulose) (HPC)) 104 % of control; under setting [1], 100 % of control.

Take `O=C(O)C1CC1.[Ag]`: the T/C is 96 % of control (dose: 0.78 mg/kg/injection, schedule: Q01DX009 (ip), vehicle: distilled water + Tween-80); 110 % of control (dose: 1.56 mg/kg/injection, schedule: Q01DX009 (ip), vehicle: distilled water + Tween-80); 96 % of control (dose: 3.12 mg/kg/injection, schedule: Q01DX009 (ip), vehicle: distilled water + Tween-80); 100 % of control (dose: 6.25 mg/kg/injection, schedule: Q01DX009 (ip), vehicle: distilled water + Tween-80); 107 % of control (dose: 12.5 mg/kg/injection, schedule: Q01DX009 (ip), vehicle: distilled water + Tween-80).

Take `O=S(=O)(O)O.[W]`: the T/C runs as follows: (dose: 0.38 mg/kg/injection, schedule: Q01DX009 (ip), vehicle: saline) 102 % of control; (dose: 0.75 mg/kg/injection, schedule: Q01DX009 (ip), vehicle: saline) 118 % of control; (dose: 1.5 mg/kg/injection, schedule: Q01DX009 (ip), vehicle: saline) 98 % of control; (dose: 3.0 mg/kg/injection, schedule: Q01DX009 (ip), vehicle: saline) 119 % of control.

`c1ccc(CCN2CCC(CCc3c[nH]c4ccccc34)CC2)cc1`: the T/C was 100 % of control under setting [2], 104 % of control under setting [3] and 116 % of control under setting [4].

Regarding `N=C(N)c1ccc(/C=C/c2ccc(C(=N)N)cc2O)cc1`, the T/C is, setting by setting: (dose: 3.12 mg/kg/injection, schedule: Q01DX009 (ip), vehicle: water) 96 % of control; (dose: 6.25 mg/kg/injection, schedule: Q01DX009 (ip), vehicle: water) 101 % of control; (dose: 12.5 mg/kg/injection, schedule: Q01DX009 (ip), vehicle: water) 101 % of control; under setting [5], 111 % of control; under setting [6], 115 % of control.

As for `O=C(NCCCCCCNC(=O)N1CC1)N1CC1`, the T/C is, setting by setting: (dose: 0.3 mg/kg/injection, schedule: Q01DX009 (ip), vehicle: saline) 104 % of control; (dose: 0.6 mg/kg/injection, schedule: Q01DX009 (ip), vehicle: saline) 119 % of control; (dose: 1.2 mg/kg/injection, schedule: Q01DX009 (ip), vehicle: saline) 115 % of control; (dose: 2.4 mg/kg/injection, schedule: Q01DX009 (ip), vehicle: saline) 120 % of control.

On to `CC(C)CCCCCCCCCCCCC(=O)NCC(=O)NC1C(O)C(O)C(Nc2ncnc3nc[nH]c23)OC1C(O)CO` (stereo not drawn), for which the T/C was 102 % of control (dose: 0.25 mg/kg/injection, schedule: Q01DX009 (ip), vehicle: Klucel (hydroxypropylcellulose) (HPC)); 90 % of control (dose: 1.0 mg/kg/injection, schedule: Q01DX009 (ip), vehicle: Klucel (hydroxypropylcellulose) (HPC)); 93 % of control (dose: 2.0 mg/kg/injection, schedule: Q01DX009 (ip), vehicle: Klucel (hydroxypropylcellulose) (HPC)).

As for `NC(=O)c1csc(C2OC(CO)C(O)C2O)n1` (stereo not drawn), the T/C runs as follows: under setting [5], 326 % of control; under setting [6], 326 % of control; (dose: 100.0 mg/kg/injection, schedule: Q01DX009 (ip), vehicle: water) 326 % of control; (dose: 200.0 mg/kg/injection, schedule: Q01DX009 (ip), vehicle: water) 326 % of control; (dose: 330.0 mg/kg/injection, schedule: Q01DX009 (ip), vehicle: water) 452 % of control; (dose: 400.0 mg/kg/injection, schedule: Q01DX009 (ip), vehicle: water) 326 % of control. Moreover, the T/C is 452 % of control (dose: 500.0 mg/kg/injection, schedule: Q01DX009 (ip), vehicle: water) and 452 % of control (dose: 750.0 mg/kg/injection, schedule: Q01DX009 (ip), vehicle: water).

On to `O=CN(SSN(C=O)C1CCCCC1)C1CCCCC1`, for which the T/C (dose: 12.5 mg/kg/injection, schedule: Q01DX009 (ip), vehicle: saline with Tween-80) was 114 % of control; the T/C (dose: 25.0 mg/kg/injection, schedule: Q01DX009 (ip), vehicle: saline with Tween-80) was 108 % of control; the T/C (dose: 50.0 mg/kg/injection, schedule: Q01DX009 (ip), vehicle: saline with Tween-80) is 99 % of control; the T/C (dose: 100.0 mg/kg/injection, schedule: Q01DX009 (ip), vehicle: saline with Tween-80) is 95 % of control; the T/C (dose: 200.0 mg/kg/injection, schedule: Q01DX009 (ip), vehicle: saline with Tween-80) is 101 % of control; the T/C (dose: 400.0 mg/kg/injection, schedule: Q01DX009 (ip), vehicle: saline with Tween-80) is 87 % of control.

Turning to `COc1cc(NS(C)(=O)=O)ccc1Nc1c2ccccc2nc2ccccc12`, the T/C was 104 % of control (dose: 3.6 mg/kg/injection, schedule: Q04DX003 (ip), vehicle: clinical formulation); 108 % of control (dose: 6.0 mg/kg/injection, schedule: Q04DX003 (ip), vehicle: clinical formulation); 121 % of control (dose: 16.7 mg/kg/injection, schedule: Q04DX003 (ip), vehicle: clinical formulation).

Regarding `Cc1cc(O)c(C(C)C)cc1S(=O)(=O)O` (tested in a mixture with another compound), the T/C was 90 % of control under setting [1] and 102 % of control (dose: 200.0 mg/kg/injection, schedule: Q01DX009 (ip), vehicle: Klucel (hydroxypropylcellulose) (HPC)).

As to `O=C(O)CP(=O)(O)O`, the T/C is 96 % of control under setting [4]; 96 % of control under setting [7]; 152 % of control (dose: 200.0 mg/kg/injection, schedule: Q01DX009 (ip), vehicle: saline).

For the compound `CCC1(O)CC2CN(CCc3c([nH]c4ccccc34)C(C(=O)OC)(c3cc4c(cc3OC)N(C)C3C(O)(C(=O)NCCO)C(O)C5(CC)C=CCN6CCC43C65)C2)C1` (stereo not drawn), the T/C (dose: 0.6 mg/kg/injection, schedule: Q04DX003 (ip), vehicle: saline) was 96 % of control; the T/C (dose: 1.0 mg/kg/injection, schedule: Q04DX003 (ip), vehicle: saline) was 101 % of control; the T/C (dose: 1.67 mg/kg/injection, schedule: Q04DX003 (ip), vehicle: saline) was 101 % of control; the T/C (dose: 216.0 micrograms/kg/injection, schedule: Q01DX009 (ip), vehicle: saline) was 111 % of control; the T/C (dose: 360.0 micrograms/kg/injection, schedule: Q01DX009 (ip), vehicle: saline) was 111 % of control.

For the compound `OC(C1CO1)C(O)C1CO1` (stereo not drawn), the T/C runs as follows: (dose: 0.25 mg/kg/injection, schedule: Q01DX009 (ip), vehicle: saline) 93 % of control; (dose: 0.5 mg/kg/injection, schedule: Q01DX009 (ip), vehicle: saline) 94 % of control and 107 % of control; (dose: 1.0 mg/kg/injection, schedule: Q01DX009 (ip), vehicle: saline) 100 % of control and 113 % of control; (dose: 2.0 mg/kg/injection, schedule: Q01DX009 (ip), vehicle: saline) 95 % of control; (dose: 4.0 mg/kg/injection, schedule: Q01DX009 (ip), vehicle: saline) 121 % of control.

On to `C=CC(=O)NCNC(=O)C=C`, for which the T/C is 90 % of control (dose: 6.25 mg/kg/injection, schedule: Q01DX009 (ip), vehicle: saline); 102 % of control and 113 % of control under setting [2]; 98 % of control and 104 % of control under setting [3]; 97 % of control and 98 % of control under setting [4]; 101 % of control and 110 % of control under setting [7].

In the case of `S=c1c2[nH]cnc2ncn1CCSC1=NC=NC2=NC=NC21` (stereo not drawn), the T/C is, setting by setting: under setting [2], 115 % of control; under setting [3], 100 % of control; under setting [4], 96 % of control.

For `CCc1nc(N)nc(N)c1-c1ccc(Cl)c(Cl)c1.[Cl][Pd][Cl]`, the T/C under setting [2] was 114 % of control.

`CCOC(=O)CNC(=O)CCCCSc1ncnc2nc[nH]c12`: the T/C was 102 % of control (dose: 20.0 mg/kg/injection, schedule: Q01DX009 (ip), vehicle: Klucel (hydroxypropylcellulose) (HPC)); 106 % of control (dose: 40.0 mg/kg/injection, schedule: Q01DX009 (ip), vehicle: Klucel (hydroxypropylcellulose) (HPC)); 98 % of control (dose: 80.0 mg/kg/injection, schedule: Q01DX009 (ip), vehicle: Klucel (hydroxypropylcellulose) (HPC)); 98 % of control (dose: 160.0 mg/kg/injection, schedule: Q01DX009 (ip), vehicle: Klucel (hydroxypropylcellulose) (HPC)); 105 % of control (dose: 320.0 mg/kg/injection, schedule: Q01DX009 (ip), vehicle: Klucel (hydroxypropylcellulose) (HPC)).
